Active and inactive are the calls of the source.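 How the source made its calls: active means compounds whose IC50 for blocking RGS4-driven GTP breakdown by the G-protein falls below a set limit; inactive means IC50 above a set limit.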

In the assay the target is Regulator of G-protein signaling 4 (Rattus norvegicus) (UniProt P49799). Put plainly: inhibitors of RGS4 GAP activity on Galphai1, confirmation, biochemical, rat RGS4, steady-state, receptor-independent, malachite green (AID 588552). The conditions noted are these: RGS4-stimulated Galphai1 GTPase, malachite green phosphate absorbance.
Sequence of Regulator of G-protein signaling 4 (Rattus norvegicus) (P49799 whole entry, looked up): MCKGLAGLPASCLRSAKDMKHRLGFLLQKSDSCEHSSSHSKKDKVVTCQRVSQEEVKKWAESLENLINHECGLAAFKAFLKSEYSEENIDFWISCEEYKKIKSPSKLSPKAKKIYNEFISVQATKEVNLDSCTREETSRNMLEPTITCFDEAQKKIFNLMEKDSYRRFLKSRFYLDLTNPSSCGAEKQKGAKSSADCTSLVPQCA

On to `CN1C(=O)S/C(=C\c2ccccc2OCc2ccc(C(=O)O)cc2)C1=O`, for which the IC50 is 76.7 µM. Turning to `CN(C)c1oc(-c2ccccc2[N+](=O)[O-])nc1C#N`, the concentration for half-maximal inhibition (IC50) was 18.6 µM. Regarding `O=C1C=C(NC2=CC3OC(c4ccccc4)OCC3OC2=O)CCC1` (stereo not drawn), the IC50 was 34 µM. With `CN(C)C(=O)COc1ccc(C(=O)/C=C/c2cccnc2)cc1` the figure was 59.4 µM; with `COc1cccc(/C=C/C(=O)c2c(O)cc(C)oc2=O)c1O`, > 110 µM (inactive). Then `Cc1ccc(C(C2C(=O)CC(C)(C)CC2=O)C2C(=O)CC(C)(C)CC2=O)s1`, with 91.4 µM; and `O=C(O)c1ccc2c(c1)C(=O)N(c1cccc(C(=O)/C=C/c3ccccc3)c1)C2=O`, with 23.2 µM.

Turning to `CN1C/C(=C/c2ccncc2)C(=O)/C(=C/c2ccncc2)C1`, the IC50 was 37.1 µM. Turning to `CN1CCc2cc(O)cc3c2[C@H]1Cc1ccc(O)c(O)c1-3`, the IC50 was 9.7 µM. With `CCOC(=O)C1=C(O)/C(=C\c2cccc(OC)c2)N=C1C` the figure was > 110 µM (inactive); with `CCOCCCNC(=O)/C(C#N)=C\c1ccc(Cl)c([N+](=O)[O-])c1`, > 110 µM (inactive). For `CN(C)c1ccc(C(C[N+](=O)[O-])c2c(N)n(C)c(=O)n(C)c2=O)c(F)c1C#N` (stereo not drawn), the IC50 was > 110 µM (inactive).

Take `O=C(O)c1ccc(/C=C2\COc3ccccc3C2=O)cc1`: the IC50 is 5.1 µM. Regarding `Cc1csc(NC(=O)COCC(=O)O)c1-c1nc2ccccc2s1`, the IC50 is > 110 µM (inactive). With `COc1ccc(NC(=O)/C(Cl)=C(/Cl)S(=O)Cc2ccccc2)cn1` (stereo not drawn) the figure was 1 µM; with `COC(=O)CSc1[nH]c2cc(C)ccc2c1[N+](=O)[O-]`, > 110 µM (inactive); with `Oc1c(Cl)cc(Cl)c2c1NCCC2`, 37.8 µM.

As to `O=C(O)c1ccc(/C=C/C(=O)c2ccc3c(c2)OCCCO3)cc1`, the IC50 was 34.7 µM.

Regarding `COc1ccc(-c2csc(NC3OC(=O)c4c3ccc(OC)c4OC)n2)cc1OC` (stereo not drawn), the IC50 was > 110 µM (inactive). Regarding `CC1=NOC(=O)/C1=C/c1ccc(O)cc1`, the IC50 was > 110 µM (inactive). With `N#C/C(=C/c1ccc(Cl)c([N+](=O)[O-])c1)c1ccccn1` the figure was > 110 µM (inactive); with `COc1cc2c(cc1O)C(SC)=NC(C)(C)C2`, 31.8 µM; with `CC(C)(C)c1ccc(Cn2nnc3c(=O)[nH]c(C4CCN(C(=O)Cc5cccs5)CC4)nc32)cc1`, > 110 µM (inactive). For the compound `O=C(CCNc1ccc(F)cc1)c1ccco1`, the IC50 was > 110 µM (inactive).

For the compound `CCCN1CCc2cc(O)cc3c2[C@H]1Cc1ccc(O)c(O)c1-3`, the half-inhibitory concentration (IC50) was 11 µM. Then `O=[N+]([O-])c1ccc(O)c(/C=N/NC(=S)Nc2ccc(Cl)cc2Cl)c1`, with > 110 µM (inactive). Then `O=C1/C(=C/c2ccncc2)CCC/C1=C\c1ccncc1`, with 9.9 µM; and `Cc1ccc(/C=C2\C(=O)NC(=S)N(c3ccc(F)cc3)C2=O)s1`, with 11 µM; and `NC(=O)N/N=C/c1c(Sc2nnnn2-c2ccccc2)nc2ccccn2c1=O`, with 55.5 µM. For the compound `O=C(/C=C/c1ccncc1)c1ccc2c(c1)OCCO2`, the IC50 is 31.1 µM. Then `N[C@@H](Cc1cc(Br)c(O)c(Br)c1)C(=O)O`, with > 110 µM (inactive); and `COC(=O)CSc1[nH]c2ccccc2c1[N+](=O)[O-]`, with 55 µM. Then `COc1ccc2cc(C3C(C#N)=C(N)OC(C)=C3C(C)=O)c(Cl)nc2c1` (stereo not drawn), with > 110 µM (inactive); and `Cc1cccc(N2C(=O)/C(=C/c3ccc(C(=O)O)cc3)c3ccccc3C2=O)c1`, with 31.8 µM; and `COc1ccc(OC)c(N2C(=O)NC(=O)/C(=C/c3ccc([N+](=O)[O-])s3)C2=O)c1`, with 18 µM. With `O=C(/C=C/c1ccc([N+](=O)[O-])cc1)c1ccco1` the figure was > 110 µM (inactive); with `Cc1cc(-c2n[nH]c(=S)n2/N=C/C(Br)=C/c2ccccc2)n[nH]1`, 4 µM. `CC(C)OP(=O)(OC(C)C)/C(C=O)=N\Nc1ccc([N+](=O)[O-])cc1`: the IC50 is > 110 µM (inactive). Then `O=C1NC(=S)N(c2ccccc2F)C(=O)/C1=C\c1cccs1`, with 35.6 µM; and `O=C1/C(=C\c2ccc(Cl)c(Cl)c2)N2CCC1CC2`, with > 110 µM (inactive); and `CN1C(=O)/C(=C\c2ccc(Br)s2)C(=O)NC1=S`, with 14.8 µM. `COc1ccc(C(C[N+](=O)[O-])c2c(-c3ccccc3)cc3ccccn23)cc1OC` (stereo not drawn): the IC50 is > 110 µM (inactive). Then `Cc1nc2c(=O)n(C)c(=O)n(C)c2nc1Cl`, with > 110 µM (inactive); and `Cc1c(NC(=O)c2coc(=O)c(Br)c2)c(=O)n(-c2ccccc2)n1C`, with > 110 µM (inactive); and `CCOCCCNC(=O)/C(C#N)=C\c1ccc([N+](=O)[O-])o1`, with 10.7 µM. Then `Cn1c(OCc2ccco2)nc2c1c(=O)n(Cc1ccc(Cl)c(Cl)c1)c(=O)n2C`, with > 110 µM (inactive); and `O=C/C=C/c1c(-c2ccccc2)cc2oc3ccccc3cc1-2`, with > 110 µM (inactive); and `CCOC(=O)/C=C/C(=O)OCC(=O)N1CCN(C(=O)c2ccco2)CC1`, with > 110 µM (inactive). Then `O=C1/C(=C\c2ccc(Cl)cc2Cl)N2CCC1CC2`, with > 110 µM (inactive). `COc1ccc(NC(=O)/C(C#N)=C\c2ccc(Sc3nncn3C)c([N+](=O)[O-])c2)cc1`: the IC50 was > 110 µM (inactive).

For the compound `Cc1ccc(CNC(=O)c2cn(C3CCCCC3)c(=O)c3c2c2ccccc2n3C)o1`, the IC50 is > 110 µM (inactive). Then `Cc1cc2nc(CS)[nH]c2cc1C`, with > 110 µM (inactive). Regarding `Cc1ccccc1OCc1nnc(SCC(=O)Nc2ccc3c(c2)oc2ccccc23)n1C`, the IC50 was > 110 µM (inactive). Then `Cc1ccc(/C=C/C(=O)N2CC(C)CC(C)C2)o1` (stereo not drawn), with 16.7 µM; and `O=C1N=c2ccccc2=C1c1c(O)n(-c2cccc(F)c2)[nH]c1=O`, with 55.8 µM; and `Cc1ccc(C(C2=C(O)CC(C)(C)CC2=O)C2C(=O)CC(C)(C)CC2=O)o1` (stereo not drawn), with > 110 µM (inactive). Then `O=C(N/N=C/c1cc([N+](=O)[O-])ccc1O)NC12CC3CC(CC(C3)C1)C2`, with > 110 µM (inactive); and `CC1=NN(c2ccc(C(=O)O)cc2)C(=O)/C1=C\c1ccc(OC(=O)c2cccs2)cc1`, with 11.8 µM.

What is called IC50 is the concentration at which inhibition is half-maximal.

(Values after PubChem BioAssay AID588552 (Johns Hopkins Ion Channel Center, 2011).)
